Like-named read-outs stand apart in the source and are kept apart here.
Columns and labels:
[1] = system: GCT cell lines; test: XTT cell viability assay, GCT cell lines (pre-screen / summary); type: cell-based, Human; settings: for EC50 / effective concentration in words: SE and EC proxies TCam-2 and 2102EP
Summary of the method: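 Seeding density of 5 × 10^3 cells per well applied to both tumour and fibroblast lines; compounds or vehicle followed after overnight attachment. Metabolic activity by XTT, four technical repeats, EC50 calculated.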

[2] = system: TCam-2 (SE); test: XTT cell viability assay, TCam-2; type: cell-based; settings: Homo sapiens, read-out: EC50 colour/symbol code, SE TCam-2
Protocol: (§1) The […] (XTT) assays were performed as described previously. In summary, for GCT and fibroblast cell lines 5 × 10^3 cells (3 × 10^3 for UC, PCa and RCC cell lines) per 96-well were seeded and different drug concentrations (see Additional file 2: Fig. S2, Additional file 3: Fig. S3) or corresponding solvents were added to the cells the following day. For drug details see Additional file 12: Table S2 C. Each condition was analyzed in four technical replicates and EC50 values were calculated by GraphPad Prism v8.

[3] = system: 2102EP (EC); test: XTT cell viability assay, 2102EP; type: cell-based; settings: Homo sapiens, read-out: EC50 colour/symbol code, EC 2102EP
Protocol: as §1

[4] = system: SE-R (cisplatin-resistant seminoma subclone); test: XTT cell viability assay, mean per entity SE-R; type: cell-based; settings: Homo sapiens, after 48 h
Protocol: as §1

[5] = system: EC (embryonal carcinoma) cell lines; test: XTT cell viability assay, mean per entity EC; type: cell-based; settings: Homo sapiens, after 48 h
Protocol: as §1

[6] = system: YST (yolk-sac tumor) cell lines; test: XTT cell viability assay, mean per entity YST; type: cell-based; settings: Homo sapiens, after 48 h
Protocol: as §1

[7] = system: CC-R (cisplatin-resistant choriocarcinoma subclones); test: XTT cell viability assay, mean per entity CC-R; type: cell-based; settings: Homo sapiens, after 48 h
Protocol: as §1

[8] = system: Sertoli cells FS1 (SC); test: XTT cell viability assay, Sertoli cells; type: cell-based; settings: Homo sapiens; after 48 h
Protocol: as §1

[9] = system: transcriptome of 2102EP cells; test: RNA sequencing; type: cell-based, Human; settings: 16 h; for A1BG Log2 fold change vs. DMSO / A1CF Log2 fold change vs. DMSO / A2M Log2 fold change vs. DMSO: unsorted data
Summary of the method: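 Transcriptome of 2102EP cells sequenced; differential expression between two groups tested with p values FDR-corrected for multiple testing. Solvent-control values averaged across three datasets (GSE189472, GSE190792, GSE190022).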

[10] = system: phosphorylated kinase targets in 2102EP cells; test: Proteome Profiler Human Phospho-Kinase Array; type: cell-based; settings: 16 h
Protocol: For the detection of phosphorylated kinase targets, the Proteome Profiler Human Phospho-Kinase Array Kit (R&D Systems, Abingdon, UK) was used according to the manufacturer’s instructions. The ChemiDoc Imaging System (Bio-Rad Laboratories, Feldkirchen, Germany) was used for detection. 2102EP cells were harvested after 16 h of treatment with the epi-drugs. Pixel density was analyzed using Fiji ImageJ 1.53c.

[11] = system: PRKCB, PRKD1, HDAC9, CSF1R expression in GCT cells; test: Quantitative RT-PCR of co-treatment target genes; type: cell-based, Human; settings: 0.2 × EC50, 0.5 × EC50 and EC50
Protocol: Quantitative RT-PCR (qRT-PCR) was performed as described previously. A total amount of 1 µg of RNA was in-vitro transcribed into cDNA by using Oligo(dT)18 Primer and Maxima H Minus Reverse Transcriptase (200 U/µL) (all Thermo Fisher Scientific). qRT-PCR runs were performed on a 384-well C1000 cycler (BioRad, Feldkirchen, Germany). All samples were analyzed in technical triplicates using 7.34 ng of cDNA for each replicate and the SYBR-green-based Luna Universal qPCR Master Mix (New England Biolabs, Frankfurt am Main, Germany). At the end of each run, melting curve analyses were performed. Oligonucleotide sequences are given in the supplement (Additional file 12: Table S2 B).

[12] = Homo sapiens, GCT, cell line not stated, read-out: EC50 concentration used for low dose qRT-PCR
[13] = sorted data log2>±1.5, FDR p<0.05

Row | Structure (SMILES) | EC50 [1, 12] [nM] | EC50 / effective concentration in words ([1]; first pre-screen, XTT) | EC50 [4] [nM] | EC50 [5] [nM] | EC50 [6] [nM] | EC50 [7] [nM] | EC50 [8] [nM] | A1BG Log2 fold change vs. DMSO [9] | A1CF Log2 fold change vs. DMSO [9] | A2M Log2 fold change vs. DMSO [9] | CREB, STAT3 and STAT5 phosphorylation and total levels of β-Catenin and HSP60 [10] | p53 S15 phosphorylation [10] | EC50 ([2]; after 48 h, XTT, n = 4) [nM] | EC50 ([3]; after 48 h, XTT, n = 4) [nM] | ERK1/2 phosphorylation [10] | EIF3CL Log2 fold change vs. DMSO [9, 13] | further results
1 | CN1C(=O)[C@@]23C[C@]4([C@]56C[C@@]78SS[C@@](CO)(C(=O)N7[C@H]5Nc5ccccc56)N(C)C8=O)c5ccccc5N[C@@H]4N2C(=O)[C@]1(CO)SS3 [Chaetocin] | 173 | nanomolar range | 218 | 128 | 98.7 | 233 | 69.3 | 0.04 | -2.02 | 1.33 | decreased | increased |  |  |  |  | EC50 ([2]; 48 h): < 1000 nM; EC50 ([3]; 48 h): < 1000 nM; ATP1A2 Log2 fold change vs. DMSO [9, 13]: -3.26; CASQ1 Log2 fold change vs. DMSO [9, 13]: -2.99; DLX5 Log2 fold change vs. DMSO [9, 13]: 5.91; DLX6 Log2 fold change vs. DMSO [9, 13]: 5.90; POU2F3 Log2 fold change vs. DMSO [9, 13]: -2.99; SERPINB3 Log2 fold change vs. DMSO [9, 13]: 6.77; PRKD1 expression (qRT-PCR) [11]: upregulation
2 | CCCc1cc(C)[nH]c(=O)c1CNC(=O)c1cc(-c2ccnc(N3CCN(C)CC3)c2)cc2c1cnn2C(C)C [GSK343] | 10700 |  | 10100 | 10600 | 6180 | 9060 | 10600 | -0.54 | -2.01 | -0.59 | decreased |  | 1000 to 50000 | 1000 to 50000 | decreased |  | EC50 ([1]; Homo sapiens, GCT, first pre-screen, XTT, read-out: EC50): ≤ 50000 nM; CSF1R Log2 fold change vs. DMSO [9, 13]: 3.81; FOSB Log2 fold change vs. DMSO [9, 13]: 3.96; GOLGA6D Log2 fold change vs. DMSO [9, 13]: -4.42; SCNN1B Log2 fold change vs. DMSO [9, 13]: -4.06; TAC1 Log2 fold change vs. DMSO [9, 13]: 3.59; UMODL1 Log2 fold change vs. DMSO [9, 13]: -3.29; CSF1R expression (qRT-PCR) [11]: upregulation; HDAC9 expression (qRT-PCR) [11]: upregulation
3 | O=C1C(=Cc2cccnc2)C(=O)c2ccccc21 [PRT4165] |  |  |  |  |  |  |  | -0.25 | 0.91 | 1.71 | decreased |  |  |  | decreased | -2.52 | EC50 ([1]; first pre-screen, XTT, read-out: EC50): ≤ 50000 nM; BST2 Log2 fold change vs. DMSO [9, 13]: -2.05; MMP1 Log2 fold change vs. DMSO [9, 13]: 6.18; MMP10 Log2 fold change vs. DMSO [9, 13]: 6.89; PPFIA4 Log2 fold change vs. DMSO [9, 13]: -2.26; SPANXA1 Log2 fold change vs. DMSO [9, 13]: 5.74
4 | Cn1cc(CNCC2CCN(c3ncc(C(=O)NO)cn3)CC2)c2ccccc21 [Quisinostat] | 1.76 | nanomolar range | 13.2 | 11.6 | 6.88 | 10.7 | 6.25 | 1.07 | 2.77 | -0.10 | decreased | no alteration | < 1000 | < 1000 |  | -3.69 | HBA1 Log2 fold change vs. DMSO [9, 13]: 5.01; IL13RA2 Log2 fold change vs. DMSO [9, 13]: -2.69; LYST Log2 fold change vs. DMSO [9, 13]: -2.73; TSPY4 Log2 fold change vs. DMSO [9, 13]: 5.17; TTC9B Log2 fold change vs. DMSO [9, 13]: 4.98; PRKCB expression (qRT-PCR) [11]: upregulation
